Measured values: patent US20260226006A1, “INDOLE COMPOUND, PREPARATION METHOD THEREFOR AND USE THEREOF” (SUZHOU MERNA THERAPEUTICS CO. LTD, priority 2023, published 2026)

B1: recombinant NAP1L2 protein: human recombinant NAP1L2 protein (Abcam, Cat. #ab117213) (protein, UniProt Q9ULW6 1-460, looked up)
Nucleosome assembly protein …: MAESENRKELSESSQEEAGNQIMVEGLGEHLERGEDAAAGLGDDGKCGEEAAAGLGEEGENGEDTAAGSGEDGKKGGDTDEDSEADRPKGLIGYVLDTDFVESLPVKVKYRVLALKKLQTRAANLESKFLREFHDIERKFAEMYQPLLEKRRQIINAIYEPTEEECEYKSDSEDCDDEEMCHEEMYGNEEGMVHEYVDEDDGYEDYYYDYAVEEEEEEEEEDDIEATGEENKEEEDPKGIPDFWLTVLKNVDTLTPLIKKYDEPILKLLTDIKVKLSDPGEPLSFTLEFHFKPNEYFKNELLTKTYVLKSKLAYYDPHPYRGTAIEYSTGCEIDWNEGKNVTLKTIKKKQKHRIWGTIRTVTEDFPKDSFFNFFSPHGITSNGRDGNDDFLLGHNLRTYIIPRSVLFFSGDALESQQEGVVREVNDAIYDKIIYDNWMAAIEEVKACCKNLEALVEDIDR

Columns and labels:
HaCat cells [1] = experiment: m6A methylation level of drug-treated HaCat keratinocytes by nanopore sequencing (Example 14); assay type: cell-based, human; conditions: 50 nM drug, 24 hours
Experimental: 1*10^8 HaCat cells were seeded in culture dishes, into which 50 nM drugs (including sorafenib, capecitabine, docetaxel, and osimertinib) were added, respectively. The cells were cultured in an incubator containing 5% CO2 at 37° C. for 24 hours and washed with PBS after culture media were removed. Centrifugation was performed, the supernatant was discarded, and then, 400 μL of an RLT cell lysis buffer (QIAGEN, Cat. #79216) was added. A portion of samples were selected, into which 400 μL of 70% ethanol was added. The mixture was evenly stirred and then transferred to an RNeasy mini column, and RNA was extracted using an RNeasy mini kit (QIAGEN, Cat. #74104). 2 μL of an RNA sample was selected and dissolved in 98 μL of a 10 mM Tris-HCl buffer solution, and the absorbance at 260 nm was measured using a Nanodrop (Thermo Fisher Scientific) to determine the RNA concentration.
40 μg of an RNA sample was selected for enrichment of mRNA (PolyA+RNA) using an NEBNext Poly(A) mRNA magnetic isolation module (NEB, Cat. #E7490), and then, a 3′ end of the above enriched mRNA (PolyA+RNA) molecule was ligated with reverse transcription adapter RTA using a direct RNA sequencing kit (Oxford Nanopore Technologies, Cat. #SQK-RNA002). A reverse transcription reaction was performed with the mRNA (PolyA+RNA) molecule as a template to synthesize a complementary strand, a terminal end of the reverse transcription adapter RTA was ligated with a sequencing adapter (RNA adapter) to form a final sequencing library, and quantitative detection was performed using a Qubit™ dsDNA HS assay kit (Invitrogen, Cat. #LOT2133187).
After quality inspection of the library, the prepared sequencing library was loaded onto a PromethION flow cell chip (Oxford Nanopore Technologies, Cat. #FLO-MIN106D), and placed in a PromethION sequencer (Oxford Nanopore Technologies) for sequencing by selecting a matched sequencing mode. Basecalling was performed on sequencing data through guppy, and m6A methylation analysis was performed on original fast5 data.

[2] = system: skin of hind limb toes of mice; experiment: Chemotherapeutic drug-induced mouse models with hand-foot syndrome (Example 23); assay type: in vivo, ICR mice; conditions: for degree of swelling of hind limb toes / epidermal layer and stratum corneum in skin tissues of hind limb toes (pathological staining): modeling drug oral for 14 days; for skin appearance of hind limb toes: modeling for 14 days, capecitabine 200 mg/kg or docetaxel 25 mg/kg oral
Excerpt: After adaptive feeding for 7 days, SPF-grade ICR mice (male, 5-6 weeks old, with a body weight of approximately 35 g) were randomly divided into groups, including a blank control group (6 mice), a capecitabine modeling group (6 mice), a docetaxel modeling group (6 mice), a capecitabine+compound 2b group (6 mice), a docetaxel+compound 2b group (6 mice), a capecitabine+nicotinamide group (6 mice), and a docetaxel+nicotinamide group (6 mice). The groups were respectively administered corresponding modeling drugs by oral gavage (capecitabine at 200 mg/kg and docetaxel at 25 mg/kg) once daily, and the blank control group was administered an equivalent volume of normal saline. After administration with the chemotherapeutic drugs for 2 weeks, the compound ointments (at a compound content of 3%) used in Example 22 were respectively applied topically in the groups, or nicotinamide was orally administered (100 mg/kg) once daily continuously for 16 days.
Measurement of the degree of swelling of toes: The degree of swelling of hind limb toes of the mice was measured using a toe swelling tester (KW-7C, Nanjing Calvin Biotechnology Co., Ltd.) before administration with the modeling drugs, after administration with the modeling drugs for 2 weeks, and before sacrifice, respectively. Before measurement, ankle joints of hind paws of the mice were marked at same positions before administration, after administration for 2 weeks, and before sacrifice. During measurement, water was properly located at the same level as the marked positions, and numerical values were recorded after becoming stable.
Pathological staining of skin tissues: Skin tissue samples were selected from hind limb toes of the mice and placed in 4% paraformaldehyde for fixation at room temperature for 4 hours. Then, the tissues were taken out and rinsed with running water for several hours. The samples were subjected to dehydration treatment with 70%, 80%, and 90% ethanol solutions, followed by treatment with a mixed solution of equal amounts of absolute alcohol and xylene for 15 minutes, and then permeabilized twice with a xylene solution for 15 minutes each time until the samples became transparent. The samples were placed in a mixture of half xylene and half paraffin for soaking for 15 minutes, and then, paraffin I and paraffin II were added for wax penetration for one hour, respectively. After embedding with paraffin, the samples were sectioned, baked, dewaxed, and hydrated. Then, the hydrated sections were placed in a hematoxylin solution (ZSGB-BIO, article No. 23041001) for staining for 3 minutes, and a differentiation solution of hydrochloric acid in ethanol was added for differentiation for 15 seconds. After rinsing with water, a Scott bluing solution (Servicebio, article No. 20230801) was added for bluing for 15 seconds. After rinsing with running water, the sections were stained with an eosin solution (Solarbio, article No. 33535) for 3 minutes, rinsed with running water, dehydrated, permeabilized, sealed, and inspected under a microscope.
Immunohistochemical staining: After baking, dewaxing, and hydration, paraffin sections of skin tissues of hind limb toes of the mice were subjected to antigen retrieval using a 0.2 M citric acid buffer solution (containing 1.534 g of citric acid, 3.1 g of sodium citrate, and 100 mL of distilled water, pH 4.7). Endogenous […] was removed using 3% hydrogen peroxide (Shandong Annjet High-Tech Disinfection Technology Co., Ltd., article No. 20290902), and the sections were incubated at room temperature for 10 minutes and then fully rinsed with a PBS buffer solution (containing 8 g of NaCl, 0.2 g of KCl, 1.44 g of Na2HPO4, and 1 M HCl, pH 7.4). The sections were permeabilized with 0.5% Triron-X-100 (AmyJet Scientific, article No. A-CSH436-100 mL), respectively permeabilized with mouse anti-IL-1β and rabbit IL-8 for 10 minutes, and not permeabilized with rabbit anti-IL-6. […]

HaCat cells [3] = experiment: m6A methylation level of human HaCat keratinocytes, EpiQuik m6A RNA methylation quantification kit (Example 20); assay type: cell-based; conditions: 50 nM drug alone; for fold induction at 0.05 µM: Homo sapiens, HaCat cells, 24 hours, read-out: m6A fold change relative to control group 1
Experimental: HaCat cells were cultured in a DMEM culture medium containing 10% fetal bovine serum, 100 U/mL penicillin, and 100 μg/mL streptomycin. Culture dishes were placed in an incubator containing 5% CO2 for culture at 37° C. for 24 hours. An equal volume of DMSO was added in control group 1, 50 nM sorafenib, capecitabine, docetaxel, and osimertinib were respectively added in control groups A, B, C, and D, and 400 nM test compounds or nicotinamide were respectively added in sample groups A1-17, B1-17, C1-17, and D1-17 after the addition of 50 nM corresponding compounds. The cells were continuously cultured for 24 hours, washed with PBS, and then collected by high-speed centrifugation. Total RNA was extracted using a Trizol reagent (Sigma Aldrich), and RNA m6A methylation of a sample was quantitatively detected using an EpiQuik m6A RNA methylation quantification kit. The concentrations of positive control samples for a standard curve were 0.01 ng/μl, 0.02 ng/μl, 0.05 ng/μl, 0.1 ng/μl, 0.2 ng/μl, and 0.5 ng/μl. The absorbance at 450 nm was read using a microplate reader (Tecan GENios). A quantitative calculation formula for m6A is as follows:
m6A (ng)=(absorbance of sample well−absorbance of background well)/slope of standard curve m6A (%)=m6A (ng)/RNA amount of sample (ng)*100%.

[4] = system: NAP1L2 mRNA in HaCat cells; experiment: NAP1L2 mRNA expression in HaCat cells by RT-PCR (Example 16); assay type: cell-based, human; conditions: HaCat keratinocytes, 24 hours
Experimental: 1*10^8 HaCat cells were seeded in culture dishes, into which a recombinant protein of m6A methylase METTL3 (Abcam, Cat. #ab271611) and a recombinant protein of m6A demethylase FTO (Abcam, Cat. #ab271525) were added, or METTL3 siRNA (sh-METTL3, GeneChem) and FTO siRNA (sh-FTO, GeneChem) were transfected, respectively. The cells were placed in an incubator containing 5% carbon dioxide for culture at 37° C. for 24 hours, washed with PBS, and then collected by high-speed centrifugation. Total RNA was extracted using a Trizol reagent (Sigma Aldrich). 1 μg of RNA was reverse-transcribed into cDNA using a cDNA reverse transcription kit (Transgene Biotech, Cat. #AT311-03). 1.25 μL of a primer (Beyotime, Cat. #QH18721S), 10 μL of an iTag Universal SYBR Green supermix (Bio-Rad, Cat. #172-5125), and an appropriate amount of DEPC ultrapure water were added to formulate 20 μL of a reaction solution to perform an RT-PCR reaction. Upon completion of the reaction, the reaction solution was subjected to agarose gel electrophoresis to determine the mRNA expression amount of NAP1L2.

[5] = system: MMP2 and MMP9 in HaCat keratinocytes; experiment: Expression of matrix metalloproteinases in HaCat keratinocytes, RT-PCR and Western blot (Example 17); assay type: cell-based, human; conditions: 24 hours
Experimental: 1*10^8 HaCat cells were seeded in culture dishes, into which a human recombinant NAP1L2 protein (Abcam, Cat. #ab117213), sorafenib, capecitabine, docetaxel, and osimertinib were added, or NAP1L2 siRNA (sh-NAP1L2, GeneChem) was transfected, respectively. The cells were placed in an incubator containing 5% carbon dioxide for culture at 37° C. for 24 hours, washed with PBS, and then collected by high-speed centrifugation. An RLT lysis buffer was added to the above collected cells, the mixture was shaken at 4° C. for half an hour and centrifuged to collect the supernatant, and the expression of matrix metalloproteins was measured by Western blot.
Total RNA was extracted from the above collected cells using a Trizol reagent (Sigma Aldrich). 1 μg of RNA was reverse-transcribed into cDNA using a cDNA reverse transcription kit (Transgene Biotech, Cat. #AT311-03). 1.25 μL of a primer (SinoBiological, Cat. #HP100168&HP100367), 10 μL of an iTagUniversal SYBR Green supermix (Bio-Rad, Cat. #172-5125), and an appropriate amount of DEPC ultrapure water were added to formulate 20 μL of a reaction solution to perform an RT-PCR reaction. Upon completion of the reaction, the reaction solution was subjected to agarose gel electrophoresis to determine the mRNA expression amounts of the matrix metalloproteins.

Molecule | m6A methylation level of HaCat cells, increase compared with blank control group (HaCat cells [1]) | degree of swelling of hind limb toes [2] | epidermal layer and stratum corneum in skin tissues of hind limb toes (pathological staining) [2] | skin appearance of hind limb toes [2] | m6A methylation level of human HaCat keratinocytes (HaCat cells [3]) | fold induction at 0.05 µM (HaCat cells [3]) | mRNA expression amount of NAP1L2 [4] | also measured
CC(=O)O[C@@]12CO[C@@H]1C[C@H](O)[C@@]1(C)C(=O)[C@H](O)C3=C(C)[C@@H](OC(=O)[C@H](O)[C@@H](NC(=O)OC(C)(C)C)c4ccccc4)C[C@@](O)([C@@H](OC(=O)c4ccccc4)[C@H]21)C3(C)C [Docetaxel, docetaxel] | 3.97 times | swelling of the hind limb toes of the mice is caused | significantly thickened | obvious erythema, rhagades, and blisters | significantly increase | 5.6 |  | cytokine IL-6 in skin tissues of hind limb toes (immunohistochemistry) ([2]; docetaxel oral for 14 days): significantly increased
m6A methylase METTL3: recombinant protein of m6A methylase METTL3 (Abcam, Cat. #ab271611) |  |  |  |  |  |  | significantly increased | 
m6A demethylase FTO: recombinant protein of m6A demethylase FTO (Abcam, Cat. #ab271525) |  |  |  |  |  |  | significantly decreased | 
CCCCCOC(=O)Nc1nc(=O)n([C@@H]2O[C@H](C)[C@@H](O)[C@H]2O)cc1F [Capecitabine, capecitabine] | 6.01 times | swelling of the hind limb toes of the mice is caused | significantly thickened | obvious erythema, rhagades, and blisters | significantly increase | 6.7 |  | cytokine IL-8 in skin tissues of hind limb toes (immunohistochemistry) ([2]; capecitabine oral for 14 days): significantly increased
B1 |  |  |  |  |  |  |  | mRNA and protein expression amounts of matrix metalloproteinases MMP2 and MMP9 [5]: significantly increased
